Data published in patent publication US10189816B2, “Substituted pyridines as inhibitors of human immunodeficiency virus replication” (priority 2015, dated 2019).
Like-named read-outs stand apart in the source and are kept apart here.

Tested on: NL-RLuc virus
Experiment: Inhibition of HIV replication (NL-RLuc reporter virus in MT-2 cells, luciferase readout)
Type: cell-based
Settings: Human immunodeficiency virus 1, MT2, 120 h
Method in brief: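 Antiviral EC50 came from luciferase signal after 5-day multicycle replication of NL-RLuc virus in MT-2 cells with serially diluted compound (RPMI 1640, 10% heat-inactivated FBS), fitted by the median effect equation over at least 2 experiments.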

Structure (SMILES) | EC50 (read-out: Activity) [µM] | EC50 (read-out: EC50 μM) [µM]
COc1ccc(CN2CCc3cc(-c4c(C)nc(C)c([C@H](OC(C)(C)C)C(=O)O)c4N4CCC(C)(C)CC4)ccc3C2)cc1C(C)C [Compound 143, (S)-2-(tert-butoxy)-2-(4-(4,4-dimethylpiperidin-1-yl)-5-(2-(3-isopropyl-4-methoxybenzyl)-1,2,3,4-tetrahydroisoquinolin-6-yl)-2,6-dimethylpyridin-3-yl)acetic acid] | < 0.1 | –
Cc1nc(C)c([C@H](OC(C)(C)C)C(=O)O)c(N2CCC(C)(C)CC2)c1-c1ccc2c(c1)CCN(Cc1c(O)cc(F)cc1F)C2 [Compound 144, (S)-2-(tert-butoxy)-2-(5-(2-(2,4-difluoro-6-hydroxybenzyl)-1,2,3,4-tetrahydroisoquinolin-6-yl)-4-(4,4-dimethylpiperidin-1-yl)-2,6-dimethylpyridin-3-yl)acetic acid] | < 0.1 | 0.008
COc1cccc(Cl)c1CN1CCc2cc(-c3c(C)nc(C)c([C@H](OC(C)(C)C)C(=O)O)c3N3CCC(C)(C)CC3)ccc2C1 [Compound 145, (S)-2-(tert-butoxy)-2-(5-(2-(2-chloro-6-methoxybenzyl)-1,2,3,4-tetrahydroisoquinolin-6-yl)-4-(4,4-dimethylpiperidin-1-yl)-2,6-dimethylpyridin-3-yl)acetic acid] | < 0.1 | –
COc1ccc(CN2CCc3cc(-c4c(C)nc(C)c([C@H](OC(C)(C)C)C(=O)O)c4N4CCC(C)(C)CC4)ccc3C2)c(F)c1 [Compound 146, (S)-2-(tert-butoxy)-2-(4-(4,4-dimethylpiperidin-1-yl)-5-(2-(2-fluoro-4-methoxybenzyl)-1,2,3,4-tetrahydroisoquinolin-6-yl)-2,6-dimethylpyridin-3-yl)acetic acid] | < 0.1 | –
COc1ccc(CN2CCc3cc(-c4c(C)nc(C)c([C@H](OC(C)(C)C)C(=O)O)c4N4CCC(C)(C)CC4)ccc3C2)c(C)c1C [Compound 147, (S)-2-(tert-butoxy)-2-(4-(4,4-dimethylpiperidin-1-yl)-5-(2-(4-methoxy-2,3-dimethylbenzyl)-1,2,3,4-tetrahydroisoquinolin-6-yl)-2,6-dimethylpyridin-3-yl)acetic acid] | < 0.1 | –
COc1cc(C)c(CN2CCc3cc(-c4c(C)nc(C)c([C@H](OC(C)(C)C)C(=O)O)c4N4CCC(C)(C)CC4)ccc3C2)cc1C [Compound 148, (S)-2-(tert-butoxy)-2-(4-(4,4-dimethylpiperidin-1-yl)-5-(2-(4-methoxy-2,5-dimethylbenzyl)-1,2,3,4-tetrahydroisoquinolin-6-yl)-2,6-dimethylpyridin-3-yl)acetic acid] | < 0.1 | –
CCOc1ccc(CN2CCc3cc(-c4c(C)nc(C)c([C@H](OC(C)(C)C)C(=O)O)c4N4CCC(C)(C)CC4)ccc3C2)cc1 [Compound 149, (S)-2-(tert-butoxy)-2-(4-(4,4-dimethylpiperidin-1-yl)-5-(2-(4-ethoxybenzyl)-1,2,3,4-tetrahydroisoquinolin-6-yl)-2,6-dimethylpyridin-3-yl)acetic acid] | < 0.1 | –
Cc1nc(C)c([C@H](OC(C)(C)C)C(=O)O)c(N2CCC(C)(C)CC2)c1-c1ccc2c(c1)CCN(Cc1ccc(OC(C)C)cc1)C2 [Compound 150, (S)-2-(tert-butoxy)-2-(4-(4,4-dimethylpiperidin-1-yl)-5-(2-(4-isopropoxybenzyl)-1,2,3,4-tetrahydroisoquinolin-6-yl)-2,6-dimethylpyridin-3-yl)acetic acid] | < 0.1 | 0.021
COc1ccc(C(F)(F)F)cc1CN1CCc2cc(-c3c(C)nc(C)c([C@H](OC(C)(C)C)C(=O)O)c3N3CCC(C)(C)CC3)ccc2C1 [Compound 151, (S)-2-(tert-butoxy)-2-(4-(4,4-dimethylpiperidin-1-yl)-5-(2-(2-methoxy-5-(trifluoromethyl)benzyl)-1,2,3,4-tetrahydroisoquinolin-6-yl)-2,6-dimethylpyridin-3-yl)acetic acid] | < 0.1 | –
Cc1nc(C)c([C@H](OC(C)(C)C)C(=O)O)c(N2CCC(C)(C)CC2)c1-c1ccc2c(c1)CCN(Cc1ccccc1OC(C)C)C2 [Compound 152, (S)-2-(tert-butoxy)-2-(4-(4,4-dimethylpiperidin-1-yl)-5-(2-(2-isopropoxybenzyl)-1,2,3,4-tetrahydroisoquinolin-6-yl)-2,6-dimethylpyridin-3-yl)acetic acid] | < 0.1 | –
Cc1nc(C)c([C@H](OC(C)(C)C)C(=O)O)c(N2CCC(C)(C)CC2)c1-c1ccc2c(c1)CCN(Cc1ccccc1OCC(C)C)C2 [Compound 153, (S)-2-(tert-butoxy)-2-(4-(4,4-dimethylpiperidin-1-yl)-5-(2-(2-isobutoxybenzyl)-1,2,3,4-tetrahydroisoquinolin-6-yl)-2,6-dimethylpyridin-3-yl)acetic acid] | < 0.1 | –
Cc1nc(C)c([C@H](OC(C)(C)C)C(=O)O)c(N2CCC(C)(C)CC2)c1-c1ccc2c(c1)CCN(Cc1cccc(OC(C)C)c1)C2 [Compound 154, (S)-2-(tert-butoxy)-2-(4-(4,4-dimethylpiperidin-1-yl)-5-(2-(3-isopropoxybenzyl)-1,2,3,4-tetrahydroisoquinolin-6-yl)-2,6-dimethylpyridin-3-yl)acetic acid] | < 0.1 | –
Cc1nc(C)c([C@H](OC(C)(C)C)C(=O)O)c(N2CCC(C)(C)CC2)c1-c1ccc2c(c1)CCN(Cc1ccc3c(c1)CCCO3)C2 [Compound 155, (S)-2-(tert-butoxy)-2-(5-(2-(chroman-6-ylmethyl)-1,2,3,4-tetrahydroisoquinolin-6-yl)-4-(4,4-dimethylpiperidin-1-yl)-2,6-dimethylpyridin-3-yl)acetic acid] | < 0.1 | –
Cc1nc(C)c([C@H](OC(C)(C)C)C(=O)O)c(N2CCC(C)(C)CC2)c1-c1ccc2c(c1)CCN(Cc1ccc3c(c1)OCCO3)C2 [Compound 156, (S)-2-(tert-butoxy)-2-(5-(2-((2,3-dihydrobenzo[b][1,4]dioxin-6-yl)methyl)-1,2,3,4-tetrahydroisoquinolin-6-yl)-4-(4,4-dimethylpiperidin-1-yl)-2,6-dimethylpyridin-3-yl)acetic acid] | < 0.1 | 0.008
Cc1nc(C)c([C@H](OC(C)(C)C)C(=O)O)c(N2CCC(C)(C)CC2)c1-c1ccc2c(c1)CCN(Cc1ccc(OC(F)F)c(OC(F)F)c1)C2 [Compound 157, (S)-2-(5-(2-(3,4-bis(difluoromethoxy)benzyl)-1,2,3,4-tetrahydroisoquinolin-6-yl)-4-(4,4-dimethylpiperidin-1-yl)-2,6-dimethylpyridin-3-yl)-2-(tert-butoxy)acetic acid] | < 0.1 | –
Cc1nc(C)c([C@H](OC(C)(C)C)C(=O)O)c(N2CCC(C)(C)CC2)c1-c1ccc2c(c1)CCN(Cc1cccc3c1OCCO3)C2 [Compound 158, (S)-2-(tert-butoxy)-2-(5-(2-((2,3-dihydrobenzo[b][1,4]dioxin-5-yl)methyl)-1,2,3,4-tetrahydroisoquinolin-6-yl)-4-(4,4-dimethylpiperidin-1-yl)-2,6-dimethylpyridin-3-yl)acetic acid] | < 0.1 | –
Cc1nc(C)c([C@H](OC(C)(C)C)C(=O)O)c(N2CCC(C)(C)CC2)c1-c1ccc2c(c1)CCN(Cc1c(F)cccc1Oc1ccccc1)C2 [Compound 159, (S)-2-(tert-butoxy)-2-(4-(4,4-dimethylpiperidin-1-yl)-5-(2-(2-fluoro-6-phenoxybenzyl)-1,2,3,4-tetrahydroisoquinolin-6-yl)-2,6-dimethylpyridin-3-yl)acetic acid] | < 0.1 | –
